Experimental data from US8129402B2 (priority 2002, dated 2012).
“Also recorded” adds a separate entry of the source.

Legend:
[1] = system: [PSI+] prion (prion form of the protein Sup35p), STRg6 strain; type: cell-based, Saccharomyces cerevisiae; settings: for relative anti-prion activity on a dish (FIG. 4): 10 μl of a 10 mM solution applied; for activity against the [PSI+] prion (FIG. 7, validation of the screen) / activity compared with another compound in the screen: medium contains 200 μM of guanidium chloride; for synergy of action with guanidium chloride: sub-effective guanidium chloride in medium (200 μM, 500 μM)
[2] = system: [URE3] prion (Ure2p), NT34 strain; type: cell-based, Saccharomyces cerevisiae; settings: for red halo on NT34 lawn ([URE3] secondary screen): FIG. 6
[3] = system: [URE3] prion, NT34 and CC34 strains; type: cell-based, Saccharomyces cerevisiae
[4] = system: [PSI+] prion, "strong" strain 74-D694; type: cell-based, Saccharomyces cerevisiae
[5] = biological target: PrP^sc in ScN2a-22L cells (Mus musculus, UniProt P04925); type: cell-based
Sequence of PrP^sc in ScN2a-22L cells (P04925 23-230 limits assumed): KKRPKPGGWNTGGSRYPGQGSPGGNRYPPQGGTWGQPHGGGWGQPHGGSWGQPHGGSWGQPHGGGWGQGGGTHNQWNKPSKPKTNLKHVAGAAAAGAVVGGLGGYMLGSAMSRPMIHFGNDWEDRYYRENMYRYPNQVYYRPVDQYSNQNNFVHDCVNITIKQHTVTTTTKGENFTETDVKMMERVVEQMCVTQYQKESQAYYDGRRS

mammal prion PrP = mammal prion PrP (Mus musculus, UniProt P04925); settings: cited from earlier work
Sequence of mammal prion PrP (P04925 23-230 limits assumed): as above

For Nc1nc2ccccc2c2ccccc12 [6-aminophenanthridine], the “general statement of anti-prion activity in the screen” value [1] was “particularly active”, the “relative anti-prion activity on a dish (FIG. 4)” value (from here on “relative anti-prion activity”) [1] was “still more active than the Kastellpaolitines and phenanthridine” and the “red halo on NT34 lawn ([URE3] secondary screen)” value [2] was “cause the appearance of a red halo”. The “colony colour of NT34 cells recovered around the filter, on fresh medium free of molecules” value [3] was “red colonies”, the “curing of the [URE3] prion (ability to grow on USA medium)” value ([3]; CC34 strain, different doses, alone) was “capable of curing the [URE3] prion in a significant manner” and the “curing of the [URE3] prion in combination with guanidium chloride” value ([3]; CC34 strain, with 200 μM of guanidium chloride) was “accentuated”. For the same compound, the “curing of the [PSI+] prion in liquid medium” value ([4]; 5 days liquid culture, compound alone, FIG. 5) was “capable of partially curing the [PSI+] prion from a significant number of cells”, the “curing effectiveness with added guanidium chloride in liquid medium” value ([4]; plus sub-effective dose (100 μM) of guanidium chloride) was “increased” and the “elimination of the mammal prion in vitro (summary)” value [5] was “effective”. The “effect on the elimination of PrPsc” value ([5]; at 2 and 4 μM) was “same effect”.
For Nc1nc2ccccc2c2ccc(Cl)cc12 [6A-8CP, 6-amino-8-chlorophenanthridine], the “relative anti-prion activity” value [1] was “again increased the activity”.
For Nc1nc2ccccc2c2ccc(C(F)(F)F)cc12 [6A-8tFP, 6-amino-8-trifluoromethylphenanthridine], the “relative anti-prion activity” value [1] was “one of the most active compounds”.
For CC(=O)c1ccc2c(c1)N(CCCN(C)C)c1ccccc1S2 [acepromazine], the “activity against the [PSI+] prion (FIG. 7, validation of the screen)” value (shortened to “activity against the [PSI+] prion”) [1] is listed as “weak activity” and the “activity in the mammal system (Prof. Prusiner's test)” value (“activity in the mammal system” for short) (mammal prion PrP) is listed as “slightly active”.
For NC(=O)N1c2ccccc2C=Cc2ccccc21 [carbamazepine], the “activity against the [PSI+] prion” value [1] is listed as “inactive” and the “activity in the mammal system” value (mammal prion PrP) is listed as “inactive”.
For CN(C)CC/C=C1/c2ccccc2Sc2ccc(Cl)cc21 [chloroprothixene], the “activity against the [PSI+] prion” value [1] is listed as “inactive” and the “activity in the mammal system” value (mammal prion PrP) is listed as “inactive”.
With CN(C)CCCN1c2ccccc2Sc2ccc(Cl)cc21 [chlorpromazine] the “activity against the [PSI+] prion” value [1] was “a certain activity”, the “activity compared with another compound in the screen” value [1] was “clearly weaker than that of 6-aminophenanthridine” and the “synergy of action with guanidium chloride” value [1] was “strong synergy of action”.
For Cl.N=C(N)N [guanidium chloride], the “colony colour of NT34 strain after treatment” value ([2]; 5 mM of guanidium chloride for approximately ten generations) was “red colonies”, the “colony colour of NT34 cells recovered around the filter, on fresh medium free of molecules” value [3] was “red colonies” and the “curing of [PSI+] cells (red staining of the drop of cells)” value ([4]; 5 mM guanidium chloride, 0.2% DMSO, after 48 hours (approximately 12 generations)) was “complete curing”.
For O=C(CCCN1CCC(O)(c2ccc(Cl)cc2)CC1)c1ccc(F)cc1 [haloperidol], the “activity against the [PSI+] prion” value [1] is listed as “inactive” and the “activity in the mammal system” value (mammal prion PrP) is listed as “inactive”.
In the case of CN(C)CCCN1c2ccccc2CCc2ccccc21 [imipramine], the “activity against the [PSI+] prion” value [1] is given as “inactive” and the “activity in the mammal system” value (mammal prion PrP) is given as “inactive”.
In the case of CN(C)c1ccc2nc3ccc(=[N+](C)C)cc-3sc2c1 [methylene blue], the “activity against the [PSI+] prion” value [1] is given as “inactive” and the “activity in the mammal system” value (mammal prion PrP) is given as “inactive”.
In the case of c1ccc2c(c1)cnc1ccccc12 [phenanthridine], the “general statement of anti-prion activity in the screen” value [1] is reported as “particularly active”, the “anti-prion activity: red halo around the filter disc (size of the halo)” value ([1]; 15 μl of a 10 mM solution in DMSO, medium with 0.2 mM guanidium chloride, FIG. 3) is reported as “positive signal” and the “activity on a medium without guanidium chloride” value ([1]; medium without guanidium chloride) is reported as “always active”. For the same compound, the “synergy of action with guanidium chloride” value [1] was “activity increases significantly as a function of the quantity of guanidium chloride”, the “red halo on NT34 lawn ([URE3] secondary screen)” value [2] was “cause the appearance of a red halo” and the “colony colour of NT34 cells recovered around the filter, on fresh medium free of molecules” value [3] was “red colonies”.
In the case of CCN(CC)CCCC(C)Nc1c2ccc(Cl)cc2nc2ccc(OC)cc12 (stereo not drawn) [quinacrine], the “activity against the [PSI+] prion” value [1] is reported as “a certain activity” and the “activity compared with another compound in the screen” value [1] is reported as “clearly weaker than that of 6-aminophenanthridine; also recorded: activity greater than the latter”.
For COc1ccc(CCN(C)CCCC(C#N)(c2ccc(OC)c(OC)c2)C(C)C)cc1OC (stereo not drawn) [verapamil], the “activity against the [PSI+] prion” value [1] was “no curative effect could be detected”.
